Laboratory results published in the supplement of paper PMC10307832.

What was measured:
Test in all cases: relative viability (nuclei count vs DMSO), 5 days (fraction); higher = more cells survive
[1] = compound: Cc1nc(Nc2ncc(C(=O)Nc3c(C)cccc3Cl)s2)cc(N2CCN(CCO)CC2)n1 [Dasatinib] + Cc1cc(Nc2cc(N3CCN(C)CC3)nc(Sc3ccc(NC(=O)C4CC4)cc3)n2)n[nH]1 [Tozasertib] (partner 0.1 µM)
How it was run: (§1)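 The day after seeding in 1536-well plates, lung cancer cell lines were treated by pin tool with a single drug, or with a fixed anchor-drug dose together with five library-drug doses (not always all listed) in √10 steps. After 5 days, a combined fix-and-stain solution (final 0.05% Triton X-100, 1% formaldehyde, 1 ug/ml Hoechst) was added. Nuclei counted on 4× images gave relative viability as treated counts over vehicle counts, reported as the median of duplicate plates.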

[2] = compound: C1CC1C(=O)NC2=NNC3=C2C=CC(=C3)C4=CC(=CC=C4)C(=O)NC5CC5 [XMD13-2] + C[C@@H](Oc1cc(-c2cnn(C3CCNCC3)c2)cnc1N)c1c(Cl)ccc(F)c1Cl [Crizotinib] (partner 1 µM)
How it was run: as §1

[3] = compound: C1CC1C(=O)NC2=NNC3=C2C=CC(=C3)C4=CC(=CC=C4)C(=O)NC5CC5 [XMD13-2] + CS(=O)(=O)CCNCc1ccc(-c2ccc3ncnc(Nc4ccc(OCc5cccc(F)c5)c(Cl)c4)c3c2)o1 [Lapatinib] (partner 2 µM)
How it was run: as §1

[4] = compound: Cc1nc(Nc2ncc(C(=O)Nc3c(C)cccc3Cl)s2)cc(N2CCN(CCO)CC2)n1 [Dasatinib] + CCNC(=O)c1noc(-c2cc(C(C)C)c(O)cc2O)c1-c1ccc(CN2CCOCC2)cc1 [Luminespib] (partner 0.01 µM)
How it was run: as §1

| Cell Line | relative viability ([1]; first compound 0.005 µM) | relative viability ([1]; first compound 0.01581 µM) | relative viability ([1]; first compound 0.05 µM) | relative viability ([1]; first compound 0.1581 µM) | relative viability ([1]; first compound 0.5 µM) | relative viability ([2]; first compound 0.05 µM) | relative viability ([2]; first compound 0.1581 µM) | relative viability ([2]; first compound 0.5 µM) | relative viability ([2]; first compound 1.581 µM) | relative viability ([2]; first compound 5 µM) | relative viability ([3]; first compound 0.05 µM) | relative viability ([3]; first compound 0.1581 µM) | relative viability ([3]; first compound 0.5 µM) | relative viability ([3]; first compound 1.581 µM) | relative viability ([3]; first compound 5 µM) | relative viability ([4]; first compound 0.005 µM) | relative viability ([4]; first compound 0.01581 µM) | relative viability ([4]; first compound 0.05 µM) | relative viability ([4]; first compound 0.1581 µM) | relative viability ([4]; first compound 0.5 µM) |
| --- | --- | --- | --- | --- | --- | --- | --- | --- | --- | --- | --- | --- | --- | --- | --- | --- | --- | --- | --- | --- |
| HCC-78 | 0.47 | 0.371 | 0.395 | 0.242 | 0.181 | 0.373 | 0.356 | 0.34 | 0.35 | 0.309 | 1.2 | 0.775 | 0.782 | 0.616 | 0.521 | – | – | – | – | – |
| HCC-366 | 0.115 | 0.109 | 0.109 | 0.0407 | 0.0371 | 0.616 | 0.527 | 0.688 | 0.529 | 0.65 | 1.3 | 1.04 | 1.07 | 1.09 | 1.12 | – | – | – | – | – |
| HCC-827 | 0.457 | 0.409 | 0.399 | 0.177 | 0.101 | 0.974 | 0.923 | 0.906 | 0.807 | 0.682 | 0.19 | 0.2 | 0.172 | 0.243 | 0.2 | 0.672 | 0.409 | 0.335 | 0.127 | 0.123 |
| HOP-62 | 0.387 | 0.372 | 0.393 | 0.315 | 0.242 | 0.871 | 0.889 | 0.933 | 0.939 | 0.439 | 1.17 | 1.02 | 1.09 | 1.25 | 1.07 | 0.853 | 0.858 | 0.92 | 0.648 | 0.485 |
| IA-LM | – | – | – | – | – | 0.674 | 0.794 | 0.65 | 0.664 | 0.528 | 0.812 | 0.869 | 0.751 | 0.682 | 0.47 | – | – | – | – | – |
| LC-2-ad | 0.421 | 0.366 | 0.315 | 0.271 | 0.249 | 0.468 | 0.449 | 0.467 | 0.443 | 0.48 | 1.01 | 1.06 | 0.971 | 0.885 | 0.855 | 1.1 | 1.11 | 0.86 | 0.774 | 0.376 |
| LCLC-97TM1 | 0.187 | 0.211 | 0.244 | 0.217 | 0.159 | 0.432 | 0.318 | 0.265 | 0.374 | 0.256 | 1.19 | 0.693 | 1.23 | 0.75 | 0.825 | 0.844 | 0.798 | 0.901 | 0.598 | 0.309 |
| LCLC-103H | 0.485 | 0.461 | 0.453 | 0.3 | 0.129 | 1.05 | 1.01 | 1.18 | 1 | 1.14 | – | – | – | – | – | 0.83 | 0.88 | 0.733 | 0.52 | 0.275 |
| LK-2 | 0.16 | 0.15 | 0.141 | 0.173 | 0.148 | 0.214 | 0.219 | 0.25 | 0.207 | 0.227 | 0.977 | 0.912 | 1.12 | 1.03 | 0.743 | 0.188 | 0.194 | 0.156 | 0.158 | 0.195 |
| LOU-NH91 | 0.721 | 0.652 | 0.637 | 0.556 | 0.307 | 0.791 | 0.659 | 0.769 | 0.727 | 0.782 | 0.809 | 0.758 | 0.725 | 0.713 | 0.746 | 0.348 | 0.348 | 0.285 | 0.259 | 0.27 |
| NCI-H441 | 0.594 | 0.539 | 0.625 | 0.467 | 0.375 | 0.842 | 0.715 | 0.875 | 0.656 | 0.578 | – | – | – | – | – | 0.372 | 0.307 | 0.225 | 0.196 | 0.193 |
| NCI-H522 | 0.568 | 0.483 | 0.539 | 0.466 | 0.437 | – | – | – | – | – | – | – | – | – | – | 1.16 | 0.913 | 1.08 | 0.775 | 0.923 |
| NCI-H1299 | – | – | – | – | – | 1.02 | 0.954 | 0.99 | 0.948 | 0.904 | 0.908 | 1.03 | 0.997 | 0.958 | 0.939 | – | – | – | – | – |
| NCI-H1395 | 0.819 | 0.713 | 0.723 | 0.555 | 0.4 | – | – | – | – | – | 1.56 | 0.997 | 1.08 | 0.908 | 0.945 | 0.684 | 0.627 | 0.663 | 0.443 | 0.363 |
| NCI-H1563 | – | – | – | – | – | 0.91 | 0.898 | 0.77 | 0.852 | 1.02 | 1.06 | 0.88 | 0.967 | 0.839 | 1.08 | 0.546 | 0.466 | 0.495 | 0.423 | 0.405 |
| NCI-H1623 | 0.447 | 0.329 | 0.442 | 0.351 | 0.363 | – | – | – | – | – | – | – | – | – | – | 0.414 | 0.401 | 0.49 | 0.412 | 0.319 |
| NCI-H1648 | 0.624 | 0.545 | 0.327 | 0.233 | 0.14 | – | – | – | – | – | – | – | – | – | – | – | – | – | – | – |
| NCI-H1703 | – | – | – | – | – | 1.11 | 0.997 | 0.874 | 0.422 | 0.465 | 1.38 | 1.4 | 1.17 | 0.842 | 0.72 | – | – | – | – | – |
| NCI-H1792 | – | – | – | – | – | 1.22 | 0.929 | 0.979 | 0.869 | 1.12 | 1.1 | 0.873 | 0.951 | 0.777 | 1.06 | 0.467 | 0.306 | 0.244 | 0.249 | 0.2 |
| NCI-H1793 | 0.231 | 0.19 | 0.181 | 0.146 | 0.147 | – | – | – | – | – | 0.885 | 0.609 | 1.03 | 0.601 | 0.826 | 0.164 | 0.14 | 0.148 | 0.128 | 0.104 |
| NCI-H2342 | 0.524 | 0.427 | 0.333 | 0.356 | 0.218 | – | – | – | – | – | – | – | – | – | – | 0.769 | 0.548 | 0.439 | 0.437 | 0.281 |
| SW 900 | 0.609 | 0.564 | 0.607 | 0.46 | 0.359 | – | – | – | – | – | – | – | – | – | – | 0.141 | 0.154 | 0.159 | 0.111 | 0.103 |
